Earlier results in PMC4381553, “Acute and Chronic Toxicity, Cytochrome P450 Enzyme Inhibition, and hERG Channel Blockade Studies with a Polyherbal, Ayurvedic Formulation for Inflammation” (BioMed Research International, 2015).
Where two headings read alike, the source gives them in different places.

Experiments:
CYP3a [1] = conditions: only at very high dose (200 μg/mL), rat liver microsome
CYP3a [2] = conditions: only at very high dose (200 μg/mL), human liver microsome

## CC1=C(CO)C(=O)O[C@@H]([C@@H](C)[C@H]2CC[C@H]3[C@@H]4CC=C5C[C@@H](O[C@@H]6O[C@H](CO[C@@H]7O[C@H](CO)[C@@H](O)[C@H](O)[C@H]7O)[C@@H](O)[C@H](O)[C@H]6O)C[C@H](O)[C@]5(C)[C@H]4CC[C@]23C)C1 [Withanoside IV]
CYP3a [1]
  inhibitory activity of CYP3a: some inhibitory activity
CYP3a [2]
  inhibitory activity of CYP3a: some inhibitory activity
